melting point: 110 °C
SMILES: COCC(C)Nc1cc(-c2ccnc(Nc3cccc(Cl)c3)c2)ccn1 (stereo not shown) [Compound A1.10, N*2′*-(3-Chloro-phenyl)-N*2*-(2-methoxy-1-methyl-ethyl)-[4,4′]bipyridinyl-2,2′-diamine]

— patent publication US8389442B2, “N-phenyl-′(4-pyridyl)-azinyl!amine derivatives as plant protection agents” (Syngenta Crop Protection LLC, priority 2003, dated 2013)
